How the values were obtained:
KDM5 = assay: Immunofluorescence of histone methyl mark H3K4me3 in U-87MG cells; format: cell-based, human; settings: 50 μM, 48 h
Procedure: (§1) For immunofluorescence (IF) analysis, 50 × 10^4 U-87MG cells were grown on sterile coverslips. Twenty-four hours after plating, the cells were treated with the different compounds (IOX-1 at 100 μM, GSK-J4 at 10 μM, CPI-455 at 25 μM, and both MINA53 inhibitors 9 and 10 at 50 μM) for 48 h. IF staining for different trimethylated lysine residues of histone H3 ([…]) were carried out on PFA-fixed cells blocked with 20% goat serum in PBS (1 h, RT) and incubated overnight at 4 °C with primary rabbit polyclonal antibodies against H3K4me3 (Cell Signaling, C42D8, 1:400), H3K9me3 (Cell Signaling, D4W1U, 1:400), and H3K27me3 (Cell Signaling, C36B11, 1:400). Primary antibodies were detected using rabbit anti-IgG secondary antibodies conjugated with either Cy3 (Jackson Immunoresearch 711-165-152). DNA was stained using 0.05 μg/mL 4′,6-diamidino-2-phenylindole (DAPI), and after washing, the coverslips were mounted in Vectashield mounting media. […]
(§2) For quantification of fluorescence intensity signals, images of untreated or treated cells were analyzed and processed using open-source Cell Profiler 4.1.3 image analysis software (https://cellprofiler.org/) to measure fluorescence-integrated intensity values for antibody-binding relating to individual cells. […]

KDM4 = assay: Immunofluorescence of histone methyl mark H3K9me3 in U-87MG cells; format: cell-based, human; settings: 50 μM, 48 h
Procedure: as §1, §2

HA-tagged NO66 = molecular target: T1, HA-tagged NO66 (Homo sapiens, UniProt Q9H6W3); assay: Substrate trapping by anti-HA immunoprecipitation (RPL8); format: cell-based; settings: HEK293T cells; 100 μM, 18 h
T1 construct: expressed in transfected cells; host or cells: HEK293T (transient, pEF6 vector)
T1 sequence (Q9H6W3 whole entry): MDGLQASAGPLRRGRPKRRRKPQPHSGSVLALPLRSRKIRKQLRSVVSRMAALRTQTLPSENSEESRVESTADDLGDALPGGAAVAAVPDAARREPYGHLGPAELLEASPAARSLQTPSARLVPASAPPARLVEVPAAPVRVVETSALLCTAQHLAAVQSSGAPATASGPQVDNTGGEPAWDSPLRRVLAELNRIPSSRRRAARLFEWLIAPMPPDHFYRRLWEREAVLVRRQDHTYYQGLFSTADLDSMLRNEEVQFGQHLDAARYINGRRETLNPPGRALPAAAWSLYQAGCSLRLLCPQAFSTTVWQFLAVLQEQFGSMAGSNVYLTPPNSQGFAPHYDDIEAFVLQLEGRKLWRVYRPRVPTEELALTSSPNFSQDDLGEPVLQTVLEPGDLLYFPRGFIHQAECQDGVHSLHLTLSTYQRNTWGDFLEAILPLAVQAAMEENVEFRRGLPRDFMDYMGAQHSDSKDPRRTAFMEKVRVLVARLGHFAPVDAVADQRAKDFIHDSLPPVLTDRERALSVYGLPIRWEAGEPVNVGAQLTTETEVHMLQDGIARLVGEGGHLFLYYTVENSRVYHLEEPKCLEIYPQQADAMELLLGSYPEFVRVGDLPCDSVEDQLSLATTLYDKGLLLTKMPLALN
Procedure: Proteins were transferred onto nitrocellulose or PVDF membranes and incubated with rabbit γ-H2AX (#9718, Cell Signaling Technologies, MA) anti-GAPDH (Sc47724, Santa Cruz Biotechnology, Santa Cruz, CA), rabbit anti-RPL27A (Abcam, ab74731), goat anti-RPL8 (Abcam, ab63941), horseradish peroxidase (HRP)-conjugated anti-HA (Roche, 12013819001), and HRP-conjugated anti-β-actin (Abcam, ab-49900).
For immunoprecipitation, the cells were harvested on ice and lysed by rotation for 1 h at 4 °C in JIES buffer. The cell debris was subsequently pelleted by centrifugation (10 min at 21 910g at 4 °C), and the supernatant was incubated overnight at 4 °C with Pierce anti-HA agarose beads (Thermo Scientific, 26181). The next day, the beads were washed 6 times with JIES buffer before the immunoprecipitates were eluted for 15 min at 1400 rpm at room temperature using 1 mg/mL HA peptide (Thermo Scientific, 26184) dissolved in JIES buffer. The eluted samples were then prepared in 1× Laemmli loading buffer (6x: 125 mM Tris-HCl [pH 6.8], 6% (w/v) SDS, 50% (v/v) glycerol, 225 mM dithiothreitol (DTT), and 0.1% (w/v) bromophenol blue) and boiled for 5 min for detection by western blot.
Plasmid DNA transfections were performed using a FuGENE 6 transfection reagent (Promega, E2691). […]

KDM6 = assay: Immunofluorescence of histone methyl mark H3K27me3 in U-87MG cells; format: cell-based, human; settings: 50 μM, 48 h
Procedure: as §1, §2

Compound: O=C(O)c1cnc(SCCc2ccccc2)[nH]c1=O [compound 9, 2-(Phenethylthio)-3,4-dihydro-4-oxopyrimidine-5-carboxylic Acid]
- level of histone methyl mark H3K4me3 (KDM5 selectivity) (KDM5): did not observe any evidence for an increase
- level of histone methyl mark H3K9me3 (KDM4 selectivity) (KDM4): did not observe any evidence for an increase
- trapping of RPL8 with HA-tagged NO66 (HA-tagged NO66): did not observe evidence
- level of histone methyl mark H3K27me3 (KDM6 selectivity) (KDM6): did not observe any evidence for an increase

Compound: O=C(O)c1cnc(SCCCc2ccccc2)[nH]c1=O [compound 10, 2-((3-Phenylpropyl)thio)-3,4-dihydro-4-oxopyrimidine-5-carboxylic Acid]
- level of histone methyl mark H3K4me3 (KDM5 selectivity) (KDM5): did not observe any evidence for an increase
- level of histone methyl mark H3K9me3 (KDM4 selectivity) (KDM4): did not observe any evidence for an increase
- trapping of RPL8 with HA-tagged NO66 (HA-tagged NO66): did not observe evidence
- level of histone methyl mark H3K27me3 (KDM6 selectivity) (KDM6): did not observe any evidence for an increase
